Source: patent publication US20220306695A1, “COMPSTATIN ANALOGUES AND THEIR MEDICAL USES” (priority 2019, published 2022)
Where two headings read alike, the source gives them in different places. Starred links: 1 amine or outer side, 2 acyl side, 3 side chain; linkers in the order of their positions; H or OH if unused. Positions of bridges follow the written chain, without caps; N, C: chain ends. Non-standard residues stand in square brackets, D forms with d. Residues, ends and D or L forms follow the SMILES beside them. Groups on a side chain read outwards from the residue. *: point of attachment. Trp(1-Me) = Cn1cc(C[C@H](N)C(=O)O)c2ccccc21; C18 diacid = O=C(O)CCCCCCCCCCCCCCCCC(=O)*; C16 diacid = O=C(O)CCCCCCCCCCCCCCC(=O)*; γGlu = O=C(O)[C@H](CCC(=O)[*:2])N[*:1]; AEEA = NCCOCCOCC(=O)O; Sar = CNCC(=O)O

Key:
[1] = tested on: classical complement pathway; assay: In vitro haemolysis assay (inhibition of classical complement pathway); type: cell-based, human
Summary of the method: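 Serially diluted compound (9 points) was preincubated 15 min at room temperature with diluted human serum, titrated per batch to give 70-90% maximal haemolysis, in Tris/casein buffer pH 7.4 with Mg2+/Ca2+. Antibody-sensitized sheep erythrocytes were then added for 30 min at 37° C, and the reaction was stopped with EDTA. Haemolysis was read at A405, with IC50 from 4PL fit.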

[2] = Solubility test at 10 mg/mL (visual inspection and light scattering); type: physicochemical; settings: for Solubility, Condition 1 Acetate pH 4: 10 mg/mL compound in 100 mM acetate pH 4; for Solubility, Condition 2 Acetate pH 5: 10 mg/mL compound in 100 mM acetate pH 5; for Solubility, Condition 3 Phosphate pH 6: 10 mg/mL compound in 100 mM phosphate pH 6; for Solubility, Condition 4 Phosphate pH 7: 10 mg/mL compound in 100 mM phosphate pH 7; for Solubility, Condition 5 Phosphate pH 7.5: 10 mg/mL compound in 100 mM phosphate pH 7.5
[3] = Table 3, human serum, sensitized sheep red blood cells, read-out: IC50[nM], in vitro analysis of inhibition of hemolysis

| Structure (SMILES) | IC50 [1, 3] | Solubility, Condition 1 Acetate pH 4 [2] | Solubility, Condition 2 Acetate pH 5 [2] | Solubility, Condition 3 Phosphate pH 6 [2] | Solubility, Condition 4 Phosphate pH 7 [2] | Solubility, Condition 5 Phosphate pH 7.5 [2] | IC50 ([1]; Table 4, valine 3 versus isoleucine 3 pairs, read-out: CP hemolysis IC50) |
| --- | --- | --- | --- | --- | --- | --- | --- |
| CC[C@H](C)[C@@H]1NC(=O)[C@@H](NC(=O)[C@@H](NC(=O)[C@H](CCC(=O)O)NC(C)=O)[C@@H](C)CC)CSSC[C@@H](C(=O)N[C@H](C(=O)N[C@@H](CCC(=O)O)C(N)=O)[C@@H](C)O)NC(=O)[C@H](CCCNC(=N)N)NC(=O)[C@H](Cc2c[nH]cn2)NC(=O)[C@H](CCC(=O)O)NC(=O)CNC(=O)[C@H](Cc2c[nH]c3ccccc23)NC(=O)[C@H](CC(=O)O)NC(=O)[C@H](CCC(N)=O)NC(=O)[C@H](Cc2c[nH]c3ccccc23)NC1=O [Compound 33] (Ac-EICIWQDWGEHRCTE-NH2; disulfide 3-13) | < 100 nM | − (denotes lack of solubility at the given condition, as UV absorbance at 340 nm exceeds 0.1 AU and/or it is visibly turbid or contains particles.) | − (denotes lack of solubility at the given condition, as UV absorbance at 340 nm exceeds 0.1 AU and/or it is visibly turbid or contains particles.) | + (denotes solubility at the given condition, as determined by UV absorbance being less than 0.1 AU at 340 nm and the sample being clear when manually inspected.) | + (denotes solubility at the given condition, as determined by UV absorbance being less than 0.1 AU at 340 nm and the sample being clear when manually inspected.) | + (denotes solubility at the given condition, as determined by UV absorbance being less than 0.1 AU at 340 nm and the sample being clear when manually inspected.) |  |
| CC[C@H](C)[C@H](NC(=O)[C@H](C)NC(=O)[C@H](CO)NC(=O)CNC(=O)[C@H](CCC(=O)O)NC(C)=O)C(=O)N[C@H]1CSSC[C@@H](C(=O)N(C)CC(=O)N[C@@H](CCC(=O)O)C(N)=O)NC(=O)[C@H](CCCNC(=N)N)NC(=O)[C@H](Cc2c[nH]cn2)NC(=O)[C@H](CCC(=O)O)NC(=O)CNC(=O)[C@H](Cc2c[nH]c3ccccc23)NC(=O)[C@H](CC(=O)O)NC(=O)[C@H](CCC(N)=O)NC(=O)[C@H](Cc2c[nH]c3ccccc23)NC(=O)[C@H]([C@@H](C)CC)NC1=O [Compound 28] (Ac-EGSAICIWQDWGEHRC[Sar]E-NH2; disulfide 6-16) | < 100 nM | + (denotes solubility at the given condition, as determined by UV absorbance being less than 0.1 AU at 340 nm and the sample being clear when manually inspected.) | + (denotes solubility at the given condition, as determined by UV absorbance being less than 0.1 AU at 340 nm and the sample being clear when manually inspected.) | + (denotes solubility at the given condition, as determined by UV absorbance being less than 0.1 AU at 340 nm and the sample being clear when manually inspected.) | + (denotes solubility at the given condition, as determined by UV absorbance being less than 0.1 AU at 340 nm and the sample being clear when manually inspected.) | + (denotes solubility at the given condition, as determined by UV absorbance being less than 0.1 AU at 340 nm and the sample being clear when manually inspected.) | 88 nM |
| CC[C@H](C)[C@@H]1NC(=O)[C@@H](NC(=O)[C@H](Cc2ccc(O)cc2)NC(=O)[C@H](C)NC(=O)[C@H](CO)NC(=O)CNC(=O)[C@H](CCC(=O)O)NC(C)=O)CSSC[C@@H](C(=O)N(C)CC(=O)N[C@@H](CCC(=O)O)C(N)=O)NC(=O)[C@H](CCCCNC(=O)COCCOCCNC(=O)COCCOCCNC(=O)CC[C@H](NC(=O)CCCCCCCCCCCCCCC(=O)O)C(=O)O)NC(=O)[C@H](Cc2c[nH]cn2)NC(=O)[C@H](CCC(=O)O)NC(=O)CNC(=O)[C@H](Cc2c[nH]c3ccccc23)NC(=O)[C@H](CC(=O)O)NC(=O)[C@H](CCC(N)=O)NC(=O)[C@H](Cc2cn(C)c3ccccc23)NC1=O [Compound 103, Ac-EGSAYC(1)I[1-Me-Trp]QDWGEH-[K([15-carboxy-pentadecanoyl][γGlu][Peg3][Peg3])]-C(1)[Sar]E-NH2] (Ac-EGSAYCI[Trp(1-Me)]QDWGEHK([AEEA-AEEA-γGlu-C16 diacid])C[Sar]E-NH2; disulfide 6-16) | < 100 nM | − (denotes lack of solubility at the given condition, as UV absorbance at 340 nm exceeds 0.1 AU and/or it is visibly turbid or contains particles.) | + (denotes solubility at the given condition, as determined by UV absorbance being less than 0.1 AU at 340 nm and the sample being clear when manually inspected.) | + (denotes solubility at the given condition, as determined by UV absorbance being less than 0.1 AU at 340 nm and the sample being clear when manually inspected.) | + (denotes solubility at the given condition, as determined by UV absorbance being less than 0.1 AU at 340 nm and the sample being clear when manually inspected.) | + (denotes solubility at the given condition, as determined by UV absorbance being less than 0.1 AU at 340 nm and the sample being clear when manually inspected.) |  |
| CC[C@H](C)[C@@H]1NC(=O)[C@@H](NC(=O)[C@H](Cc2ccc(O)cc2)NC(=O)[C@H](CCC(=O)O)NC(=O)[C@H](CO)NC(=O)CNC(=O)[C@H](CCC(=O)O)NC(=O)CCCCCCCCCCCCCCCCC(=O)O)CSSC[C@@H](C(=O)N(C)CC(=O)N[C@@H](CCC(=O)O)C(N)=O)NC(=O)[C@H](CCCNC(=N)N)NC(=O)[C@H](Cc2c[nH]cn2)NC(=O)[C@H](CCC(=O)O)NC(=O)CNC(=O)[C@H](Cc2c[nH]c3ccccc23)NC(=O)[C@H](CC(=O)O)NC(=O)[C@H](CCC(N)=O)NC(=O)[C@H](Cc2cn(C)c3ccccc23)NC1=O [Compound 108] ({C18 diacid}-EGSEYCI[Trp(1-Me)]QDWGEHRC[Sar]E-NH2; disulfide 6-16) | < 500 nM | − (denotes lack of solubility at the given condition, as UV absorbance at 340 nm exceeds 0.1 AU and/or it is visibly turbid or contains particles.) | − (denotes lack of solubility at the given condition, as UV absorbance at 340 nm exceeds 0.1 AU and/or it is visibly turbid or contains particles.) | + (denotes solubility at the given condition, as determined by UV absorbance being less than 0.1 AU at 340 nm and the sample being clear when manually inspected.) | + (denotes solubility at the given condition, as determined by UV absorbance being less than 0.1 AU at 340 nm and the sample being clear when manually inspected.) | + (denotes solubility at the given condition, as determined by UV absorbance being less than 0.1 AU at 340 nm and the sample being clear when manually inspected.) |  |
| CC[C@H](C)[C@H](NC(=O)[C@H](C)NC(=O)[C@H](CO)NC(=O)CNC(=O)[C@H](CCC(=O)O)NC(C)=O)C(=O)N[C@H]1CSSC[C@@H](C(=O)N[C@H](C(=O)N[C@@H](CCC(=O)O)C(N)=O)[C@@H](C)O)NC(=O)[C@H](CCCNC(=N)N)NC(=O)[C@H](Cc2c[nH]cn2)NC(=O)[C@H](CCC(=O)O)NC(=O)CNC(=O)[C@H](Cc2c[nH]c3ccccc23)NC(=O)[C@H](CC(=O)O)NC(=O)[C@H](CCC(N)=O)NC(=O)[C@H](Cc2c[nH]c3ccccc23)NC(=O)[C@H]([C@@H](C)CC)NC1=O [Compound 55] (Ac-EGSAICIWQDWGEHRCTE-NH2; disulfide 6-16) | < 250 nM | − (denotes lack of solubility at the given condition, as UV absorbance at 340 nm exceeds 0.1 AU and/or it is visibly turbid or contains particles.) | − (denotes lack of solubility at the given condition, as UV absorbance at 340 nm exceeds 0.1 AU and/or it is visibly turbid or contains particles.) | + (denotes solubility at the given condition, as determined by UV absorbance being less than 0.1 AU at 340 nm and the sample being clear when manually inspected.) | + (denotes solubility at the given condition, as determined by UV absorbance being less than 0.1 AU at 340 nm and the sample being clear when manually inspected.) | + (denotes solubility at the given condition, as determined by UV absorbance being less than 0.1 AU at 340 nm and the sample being clear when manually inspected.) |  |
| CC[C@H](C)[C@@H]1NC(=O)[C@@H](NC(=O)[C@@H](NC(=O)[C@H](CCC(=O)O)NC(=O)CNC(=O)[C@H](CCC(=O)O)NC(C)=O)[C@@H](C)CC)CSSC[C@@H](C(=O)N[C@H](C(N)=O)[C@@H](C)O)NC(=O)[C@H](CCCNC(=N)N)NC(=O)[C@H](Cc2c[nH]cn2)NC(=O)[C@H](CCC(=O)O)NC(=O)CNC(=O)[C@H](Cc2c[nH]c3ccccc23)NC(=O)[C@H](CC(=O)O)NC(=O)[C@H](CCC(N)=O)NC(=O)[C@H](Cc2c[nH]c3ccccc23)NC1=O [Compound 30] (Ac-EGEICIWQDWGEHRCT-NH2; disulfide 5-15) | < 100 nM | − (denotes lack of solubility at the given condition, as UV absorbance at 340 nm exceeds 0.1 AU and/or it is visibly turbid or contains particles.) | − (denotes lack of solubility at the given condition, as UV absorbance at 340 nm exceeds 0.1 AU and/or it is visibly turbid or contains particles.) | − (denotes lack of solubility at the given condition, as UV absorbance at 340 nm exceeds 0.1 AU and/or it is visibly turbid or contains particles.) | + (denotes solubility at the given condition, as determined by UV absorbance being less than 0.1 AU at 340 nm and the sample being clear when manually inspected.) | + (denotes solubility at the given condition, as determined by UV absorbance being less than 0.1 AU at 340 nm and the sample being clear when manually inspected.) |  |
